Where two headings read alike, the source gives them in different places.

In test [1] the target is D1 (Homo sapiens, UniProt P21728). In words: biochemical.
In test [2] the target is T1, choline transporter (Homo sapiens, UniProt Q9GZV3).
T1 sequence (Q9GZV3 1-580): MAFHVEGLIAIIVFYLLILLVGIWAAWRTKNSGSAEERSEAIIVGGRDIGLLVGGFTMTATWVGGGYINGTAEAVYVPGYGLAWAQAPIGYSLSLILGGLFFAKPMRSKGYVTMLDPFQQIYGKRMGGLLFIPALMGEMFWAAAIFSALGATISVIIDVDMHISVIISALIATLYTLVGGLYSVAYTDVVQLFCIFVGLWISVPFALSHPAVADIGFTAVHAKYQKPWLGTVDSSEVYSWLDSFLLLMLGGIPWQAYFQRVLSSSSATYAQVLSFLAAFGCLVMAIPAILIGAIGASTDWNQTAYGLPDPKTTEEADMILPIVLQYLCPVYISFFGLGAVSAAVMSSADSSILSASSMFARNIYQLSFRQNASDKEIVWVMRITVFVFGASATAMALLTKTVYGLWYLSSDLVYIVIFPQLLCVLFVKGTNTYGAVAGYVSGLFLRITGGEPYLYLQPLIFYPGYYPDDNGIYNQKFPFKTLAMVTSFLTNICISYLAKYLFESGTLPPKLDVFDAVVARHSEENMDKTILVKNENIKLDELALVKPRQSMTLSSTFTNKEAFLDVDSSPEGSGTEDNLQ
Put plainly: biochemical.

For test [3], the target named is CYP3A4 (Homo sapiens, UniProt P08684). In words: CYP3A4 inhibition, method not given. It counts as biochemical.
Sequence of CYP3A4 (P08684 2-503): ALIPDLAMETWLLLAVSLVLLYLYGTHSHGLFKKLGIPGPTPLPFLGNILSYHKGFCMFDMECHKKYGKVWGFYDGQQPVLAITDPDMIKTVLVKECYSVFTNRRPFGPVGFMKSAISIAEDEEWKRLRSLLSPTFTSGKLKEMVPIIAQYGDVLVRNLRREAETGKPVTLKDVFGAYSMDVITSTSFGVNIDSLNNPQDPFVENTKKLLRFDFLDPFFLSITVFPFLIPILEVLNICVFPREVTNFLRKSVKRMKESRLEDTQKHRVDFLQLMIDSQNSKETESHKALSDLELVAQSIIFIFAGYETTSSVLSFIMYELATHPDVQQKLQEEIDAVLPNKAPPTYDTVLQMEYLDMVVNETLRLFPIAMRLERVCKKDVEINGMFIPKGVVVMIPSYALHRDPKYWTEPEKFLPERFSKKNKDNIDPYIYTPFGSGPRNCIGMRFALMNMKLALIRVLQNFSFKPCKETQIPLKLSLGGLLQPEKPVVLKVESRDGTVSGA
The mark [4] stands for this setting: read-out: XEN602 % inhibition at 1 µM.
[5] abbreviates: read-out: XEN601 % inhibition at 1 µM.

Sequence of D1 (P21728 whole entry): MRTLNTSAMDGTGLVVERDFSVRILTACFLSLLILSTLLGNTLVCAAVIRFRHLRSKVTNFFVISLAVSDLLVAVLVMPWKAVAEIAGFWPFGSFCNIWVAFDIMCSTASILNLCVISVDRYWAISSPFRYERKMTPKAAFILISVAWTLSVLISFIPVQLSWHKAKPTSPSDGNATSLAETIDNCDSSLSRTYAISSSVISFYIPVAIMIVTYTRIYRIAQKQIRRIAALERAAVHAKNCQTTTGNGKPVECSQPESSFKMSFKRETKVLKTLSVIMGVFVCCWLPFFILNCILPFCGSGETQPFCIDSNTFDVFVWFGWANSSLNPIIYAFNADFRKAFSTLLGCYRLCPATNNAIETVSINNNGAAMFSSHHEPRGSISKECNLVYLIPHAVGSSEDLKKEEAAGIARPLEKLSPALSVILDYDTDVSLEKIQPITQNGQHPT

As to `N=C(N)SCc1cc(F)ccc1Oc1ccc(-c2ccc(Oc3ccc(CCCN4CCNCC4)cc3CSC(=N)N)c(CSC(=N)N)c2)cc1CSC(=N)N` [compound 6, XEN602], the inhibition at 1 µM in test [1] (setting [4]) was determined as 59%; in test [2] (setting [4]), 52%.
As for `N=C(N)SCc1ccccc1Oc1ccc(-c2ccc(Oc3ccccc3CSC(=N)N)c(CSC(=N)N)c2)cc1CSC(=N)N` [compound 5, XEN601], the inhibition at 1 µM in test [1] (setting [5]) was 69%; in test [2] (setting [5]) it was 62%. For the same compound, in test [3], the IC50 was less than 1000 nM.

Source of the values: paper doi:10.1101/2022.09.01.506269v1 (biorxiv, 2022).
